# Legend:
# Format in all cases: cell-based, human
# [1] = system: Treg-resistant T cells from MS patients; test: Suppressor assay: MS T cells cocultured with Treg, proliferation by 3H-Tdr incorporation; conditions: anti-CD3 mAb stimulation, FIG. 1E, n=4
# Protocol: A) PBMC from therapy-naïve MS patients (red) or HC (black) were cocultured with Treg and stimulated with anti-CD3 mAb. T cell proliferation was determined by ^3H-Tdr incorporation on day three. Box plots show percentage of suppression in presence of Treg (ratio 4:1) normalized to proliferation of T cells alone as median with interquartile range (n=15), P-values relative to T cells of HC are shown, to avoid familywise error rate bonferroni correction was used p*. B) C) IL-6R expression within CD3+ T cells of PBMC from HC or MS was determined by flow cytometry. One representative of eight independent experiments is shown. D) PKB/c-Akt phosphorylation was determined by flow cytometry within CD3^+ T cells of MS (red) or HC (black). Six different experiments are shown, p-values relative to MFI of HC. E) MS T cells with Treg were stimulated with anti-CD3 mAb without (circle) or with (quadrats) anti-IL-6R mAb or (triangles) Akt-VIII inhibitor. Each dot represents percentage of proliferation with Treg normalized to T cells alone (n=4), p-values to MS T cells.
# CD4^+CD25^− T cells (10^5 cells/well, 96 well plate, flat bottom) were stimulated with 0.1 μg/ml anti-CD3 mAb (OKT-3) and cultured in presence or absence of different Treg ratios. CD3-depleted PBMC (5×10^4/well) were used as costimulus. […] T cell proliferation was measured by ^3H-Tdr incorporation using a liquid […] counter. […]
# [2] = system: CD4+CD25- T cells from healthy donors; test: Suppressor assay: T cells and Treg cocultured in presence of IL-6 (3H-Tdr); conditions: T cells from healthy donors incubated overnight with IL-6 (500 ng/ml)
# From the text: In addition to PKB, also IL-6 and its signaling pathway play a crucial role in whether T cells from MS patients respond to suppression by Treg or not. In the context of autoimmune diseases, it has been investigated how the increased IL-6 production observed in MS can affect PTEN protein expression.
# (§1) FIG. 5: IL-6 mediates Treg resistance by inducing the phosphorylation of PKB/c-Akt and downregulation of PTEN in activated T cells A) T cells and Treg were cocultured in presence (grey) or absence (black) of IL-6 and stimulated with anti-CD3 mAb. […] B) PKB/c-Akt phosphorylation was analyzed by flow cytometry within T cells after 24 h of culture with (black) or without IL-6 (grey). C) T cells from HC were incubated for 24 h without IL-6 (black) or with IL-6 (grey) or IL-6 and anti-IL-6R mAb (striped). Shown is the mean fluorescence intensity (MFI) of pPKB/c-Akt in T cells (n=5). D) PBMC from HC were cultured for 24 h in the presence or absence of 500 ng/ml IL-6. […] Total proteins were isolated and PTEN protein expression was analyzed via western blot.
# CD4^+CD25^− T cells (10^5 cells/well, 96 well plate, flat bottom) were stimulated with 0.1 μg/ml anti-CD3 mAb (OKT-3) and cultured in presence or absence of different Treg ratios. […] T cell proliferation was measured by ^3H-Tdr incorporation using a liquid […] counter. […]
# PKB/c-Akt = PKB/c-Akt phosphorylation in T cells after culture with IL-6 (flow cytometry)
# Protocol: as §1
# Flow cytometric analysis was performed using the following antibodies: anti-human CD3 (UCHT1), anti-human CD4 (RPA-T4), anti-human CD8 (SK1), anti-human CD14 (M5E2), anti-human CD19 (HIB19), all from BD Pharmingen, anti-human CD25 (4E3), anti-human CD127 (MB15-18C9), all from Miltenyi Biotec. […] Cell viability during flow cytometric analysis was determined using 7-AAD and eFluor506 (eBioscience). […] Stained cells were measured on LSRII with FACS Diva Software (BD Bioscience) or FACSVia™ and data was analyzed with BD FACSVia Research Software (BD Biosciences). […]
# PTEN protein = PTEN protein expression in IL-6-treated activated CD4+ T cells (Western blot); conditions: IL-6-treated (500 ng/ml, 24 h) T cells, 2 hours after polyclonal activation, compared to untreated controls
# Protocol: FIG. 5: IL-6 mediates Treg resistance by inducing the phosphorylation of PKB/c-Akt and downregulation of PTEN in activated T cells A) T cells and Treg were cocultured in presence (grey) or absence (black) of IL-6 and stimulated with anti-CD3 mAb. […] B) PKB/c-Akt phosphorylation was analyzed by flow cytometry within T cells after 24 h of culture with (black) or without IL-6 (grey). C) T cells from HC were incubated for 24 h without IL-6 (black) or with IL-6 (grey) or IL-6 and anti-IL-6R mAb (striped). Shown is the mean fluorescence intensity (MFI) of pPKB/c-Akt in T cells (n=5). D) PBMC from HC were cultured for 24 h in the presence or absence of 500 ng/ml IL-6. CD4^+ T cells were isolated, left unstimulated or were activated with anti-CD3 and anti-CD28 mAb for two hours. Total proteins were isolated and PTEN protein expression was analyzed via western blot.
# Cell pellets were lysed in Cell Extraction Buffer (Invitrogen) supplemented with 1 mM PMSF (Invitrogen) and Protease Inhibitor Cocktail (Sigma) for 30 min on ice with vortexing at 10 min intervals. Total protein concentration of cell lysates was determined with Micro BCA Protein Assay Kit (Thermo Fisher Scientific) according to manufacturer's protocol. Protein separation was performed using the NuPAGE® Bis-Tris electrophoresis system (Thermo Fisher Scientific). […] Western blots were analyzed and quantified with ImageJ software.
Compound,responsiveness towards Treg-mediated suppression [1],Treg resistance [2],"phosphorylation of protein kinase B (PKB/c-Akt; T cells from healthy donors, 24 h with IL-6)",PTEN protein expression (PTEN protein),"IL-6-induced hyperactivation of PKB (PKB/c-Akt; T cells from HC, 24 h with IL-6 and anti-IL-6R mAb, n=5)"
O=c1[nH]c2ccccc2n1C1CCN(Cc2ccc(-c3nc4cc5nc[nH]c5cc4nc3-c3ccccc3)cc2)CC1 [Akt VIII],restores responsiveness towards Treg-mediated suppression,–,–,–,–
IL-6: cytokine IL-6 (ImmunoTools) added to cultures,–,induce Treg resistance,increased phosphorylation of protein kinase B,significant decrease in PTEN protein expression,–
Tocilizumab [anti-IL-6 receptor antibody],restores responsiveness towards Treg-mediated suppression,–,–,–,abolished this effect
